# Experimental data taken from patent publication US8158380B2, “Imaging agents for protein misfolding” (New York University, priority 2007, dated 2012).
# Biological target: amyloid plaques (Homo sapiens, UniProt P05067)
# Experiment: In vivo staining after intraperitoneal injection in PS/APP Tg mice, sections viewed under fluorescent microscope
# Set-up: from tissue; host or cells: brain of PS/APP (APP/PS1) transgenic mice, as sections or in vivo
# Protocol: Methods used: Five groups each of 6-month-old PS/APP Tg mice were tested (which have abundant amyloid plaques) with the compounds of the present invention. The mice received an intraperitoneal injection of compounds 23, 8 or 8F (30 μg/gram). They were sacrificed 24 hours later by ip injection of sodium pentobarbital (150 mg/kg). All animals were transcardially perfused with 20 ml of 0.1 M phosphate buffered saline (pH 7.4) with the addition of heparin followed by 80 ml of 4% formaldehyde in 0.1 M phosphate buffer. The brain was removed from the skull, cryoprotected using increasing concentrations of sucrose, and cut into serial 40-μm-thick coronal section on a freezing microtome (Leica SM2400, Nussloch, Germany). Anti-amyloid β immunohistochemistry was performed on free-floating sections, using our previously published protocols^20-23. In brief, endogenous peroxidase activity was quenched in a bath with 0.3% H2O2 for 30 min. Unspecific staining was blocked by incubation in the blocking solution provided as a part of “Mouse on mouse” kit (Vector Elite staining kit, Vector Laboratories, Burlingame, Calif.). This procedure allows for detection of antigens in murine tissue using mouse mAb avoiding substantial background. Concentration of all mAbs was 0.25 mg/ml with the total concentration of protein in a stock solution of 1 mg/ml as assessed by a Coomasie colorimetric assay. 1:2000 dilution of the stock solution was used. Primary antibodies were applied for 30 minutes followed by thorough washing and the anti-mouse IgG biotinylated secondary antibody according to the kit manufacturer instruction. For fluorescent microscopy sections were incubated with streptavidin conjugated with Cy3 (1:400; Sigma, St. Louis Mo.) whereas for light microscopy they were incubated with avidin-horseradish peroxidase complex and developed using 3,3′-diaminobenzidine kit with nickel ammonium sulfate (Vector Laboratories, Burlingame, Calif.). Following immunostaining, sections were carried on slides, air-dried, and cover-slipped. […]
# [1] = AD mice, in vivo injection, sacrificed 24 hours after injection
# Sequence of amyloid plaques (P05067 672-713 limits assumed): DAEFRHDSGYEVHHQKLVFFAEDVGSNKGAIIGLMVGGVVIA
smiles,measurement,setting,value
COc1ccc2nc(/C=C/c3ccc(-c4ccc(F)cc4)cc3)ccc2c1 [compound 8F],ability to cross the blood brain barrier,[1],able to cross the blood brain barrier
same,labeling of amyloid plaques in vivo,[1],label amyloid plaques in vivo
same,effectiveness in blood-brain barrier permeability and labeling amyloid plaques in tissue sections and in vivo,AD model transgenic mice,most effective
